In US7820623B2 (priority 2006, dated 2010) one finds IC50 data, which are given here for seven compounds.

Assay [1] concerns thapsigargin-induced IL-2 production in human whole blood.
The test system of assay [2] is thapsigargin-induced IFN-g production in human whole blood. It is filed as cell-based.
[3] abbreviates: read-out: Analogue Activity (IC50) WB/IL-2.
[4] abbreviates: read-out: Analogue Activity (IC50) WB/IFNg.

Read-outs that look alike come from different tables or passages of the source. Bridge positions count the residues as written; N and C are the ends. Square brackets hold non-standard residues; d marks the D form. Peptide text beside a SMILES is read from it. 1Nal = N[C@@H](Cc1cccc2ccccc12)C(=O)O

On to `CC[C@H](C)[C@@H]1NC(=O)[C@H](CCCCN)NC(=O)[C@@H](NC(=O)[C@H](CCCCN)NC(=O)[C@@H](NC(=O)[C@H](Cc2cccc3ccccc23)NC(=O)[C@@H](NC(=O)[C@@H](NC(=O)[C@@H](NC(=O)CN)C(C)C)[C@@H](C)CC)[C@@H](C)CC)C(C)C)CSSC[C@@H]2NC(=O)[C@H](CCCCN)NC(=O)CNC(=O)[C@H](Cc3ccccc3)NC(=O)[C@H](CCCNC(=N)N)NC(=O)[C@H](CCSC)NC(=O)CNC(=O)[C@H](C)NC(=O)[C@H](CCCCN)NC(=O)[C@H](CCCCN)NC(=O)[C@@H]3CSSC[C@@H](C(=O)N[C@H](C(=O)N4CCC[C@H]4C(=O)N[C@@H](CCCCN)C(=O)O)[C@@H](C)O)NC(=O)[C@H](Cc4c[nH]cn4)NC(=O)[C@H](CSSC[C@H](NC(=O)[C@H](CCC(N)=O)NC(=O)[C@H](CCCNC(=N)N)NC(=O)[C@H](CO)NC1=O)C(=O)N[C@@H](CC(C)C)C(=O)N[C@@H](CCC(=O)O)C(=O)N1CCC[C@H]1C(=O)N3)NC(=O)[C@H](CCCCN)NC(=O)CNC(=O)[C@H](CC(N)=O)NC(=O)[C@H](CCSC)NC2=O` [N5Nal] (H-GVII[1Nal]VKCKISRQCLEPCKKAGMRFGKCMNGKCHCTPK-OH; disulfide 8-28, 14-33, 18-35), for which the IC50 came to 0.76 nM in assay [1] (setting [3]) and 0.431 nM in assay [2] (setting [4]).
On to `CC[C@H](C)[C@@H]1NC(=O)[C@H](CCCCN)NC(=O)[C@@H](NC(=O)[C@H](CCCCN)NC(=O)[C@H](CCC(=O)O)NC(=O)[C@H](CC(N)=O)NC(=O)[C@@H](NC(=O)[C@@H](NC(=O)[C@@H](NC(=O)CN)C(C)C)[C@@H](C)CC)[C@@H](C)CC)CSSC[C@@H]2NC(=O)[C@H](CCCCN)NC(=O)CNC(=O)[C@H](Cc3ccccc3)NC(=O)[C@H](CCCNC(=N)N)NC(=O)[C@H](CCSC)NC(=O)CNC(=O)[C@H](C)NC(=O)[C@H](CCCCN)NC(=O)[C@H](CCCCN)NC(=O)[C@@H]3CSSC[C@@H](C(=O)N[C@H](C(=O)N4CCC[C@H]4C(=O)N[C@@H](CCCCN)C(=O)O)[C@@H](C)O)NC(=O)[C@H](Cc4c[nH]cn4)NC(=O)[C@H](CSSC[C@H](NC(=O)[C@H](CCC(N)=O)NC(=O)[C@H](CCCNC(=N)N)NC(=O)[C@H](CO)NC1=O)C(=O)N[C@@H](CC(C)C)C(=O)N[C@@H](CCC(=O)O)C(=O)N1CCC[C@H]1C(=O)N3)NC(=O)[C@H](CCCCN)NC(=O)CNC(=O)[C@H](CC(N)=O)NC(=O)[C@H](CCSC)NC2=O` [V6E] (H-GVIINEKCKISRQCLEPCKKAGMRFGKCMNGKCHCTPK-OH; disulfide 8-28, 14-33, 18-35), for which the IC50 in assay [1] (setting [3]) was found to be 0.048 nM; in assay [2] (setting [4]), 0.068 nM.
Consider `CC[C@H](C)[C@@H]1NC(=O)[C@H](CCCCN)NC(=O)[C@@H](NC(=O)[C@H](CCCCN)NC(=O)[C@@H](NC(=O)[C@H](C)NC(=O)[C@@H](NC(=O)[C@@H](NC(=O)[C@@H](NC(=O)CN)C(C)C)[C@@H](C)CC)[C@@H](C)CC)C(C)C)CSSC[C@@H]2NC(=O)[C@H](CCCCN)NC(=O)CNC(=O)[C@H](Cc3ccccc3)NC(=O)[C@H](CCCNC(=N)N)NC(=O)[C@H](CCSC)NC(=O)CNC(=O)[C@H](C)NC(=O)[C@H](CCCCN)NC(=O)[C@H](CCCCN)NC(=O)[C@@H]3CSSC[C@@H](C(=O)N[C@H](C(=O)N4CCC[C@H]4C(=O)N[C@@H](CCCCN)C(=O)O)[C@@H](C)O)NC(=O)[C@H](Cc4c[nH]cn4)NC(=O)[C@H](CSSC[C@H](NC(=O)[C@H](CCC(N)=O)NC(=O)[C@H](CCCNC(=N)N)NC(=O)[C@H](CO)NC1=O)C(=O)N[C@@H](CC(C)C)C(=O)N[C@@H](CCC(=O)O)C(=O)N1CCC[C@H]1C(=O)N3)NC(=O)[C@H](CCCCN)NC(=O)CNC(=O)[C@H](CC(N)=O)NC(=O)[C@H](CCSC)NC2=O` [N5A] (H-GVIIAVKCKISRQCLEPCKKAGMRFGKCMNGKCHCTPK-OH; disulfide 8-28, 14-33, 18-35), for which the IC50 turned out to be 0.0679 nM in assay [1] (setting [3]) and 0.067 nM in assay [2] (setting [4]).
As to `CC[C@H](C)[C@@H]1NC(=O)[C@H](CCCCN)NC(=O)[C@@H](NC(=O)[C@H](CCCCN)NC(=O)[C@@H](NC(=O)[C@H](CC(N)=O)NC(=O)[C@@H](NC(=O)[C@@H](NC(=O)[C@@H](NC(=O)CN)C(C)C)[C@@H](C)CC)[C@@H](C)CC)C(C)C)CSSC[C@@H]2NC(=O)[C@H](CCCCN)NC(=O)CNC(=O)[C@H](Cc3ccccc3)NC(=O)[C@H](CCCNC(=N)N)NC(=O)[C@H](CCSC)NC(=O)CNC(=O)[C@H](C)NC(=O)[C@H](CCCCN)NC(=O)[C@H](CCCCN)NC(=O)[C@@H]3CSSC[C@@H](C(=O)N[C@H](C(=O)N4CCC[C@H]4C(=O)N[C@@H](CCCCN)C(=O)O)[C@@H](C)O)NC(=O)[C@H](Cc4c[nH]cn4)NC(=O)[C@H](CSSC[C@H](NC(=O)[C@H](CCC(N)=O)NC(=O)[C@H](CCCNC(=N)N)NC(=O)[C@H](CO)NC1=O)C(=O)N[C@@H](CC(C)C)C(=O)N[C@@H](C)C(=O)N1CCC[C@H]1C(=O)N3)NC(=O)[C@H](CCCCN)NC(=O)CNC(=O)[C@H](CC(N)=O)NC(=O)[C@H](CCSC)NC2=O` [E16A] (H-GVIINVKCKISRQCLAPCKKAGMRFGKCMNGKCHCTPK-OH; disulfide 8-28, 14-33, 18-35), the IC50 in assay [1] (setting [3]) and in assay [2] (setting [4]) was 0.101 nM each time.
As to “E16K, K20D, H34A (GVIINVKCKISRQCLKPCKDAGMRFGKCMNGKCACTPK)”, the IC50 amounted to 65.5 nM in assay [1] (read-out: WB/IL-2 (IC50)) and 26.6 nM in assay [2] (read-out: WB/IFNg (IC50)).
Take `CC[C@H](C)[C@H](NC(=O)[C@H](C)NC(=O)[C@@H](NC(=O)CN)C(C)C)C(=O)N[C@@H](CC(N)=O)C(=O)N[C@H](C(=O)N[C@@H](CCCCN)C(=O)N[C@H]1CSSC[C@@H]2NC(=O)[C@H](CCCCN)NC(=O)CNC(=O)[C@H](Cc3ccccc3)NC(=O)[C@H](CCCNC(=N)N)NC(=O)[C@H](CCSC)NC(=O)CNC(=O)[C@H](C)NC(=O)[C@H](CCCCN)NC(=O)[C@H](CCCCN)NC(=O)[C@@H]3CSSC[C@@H](C(=O)N[C@H](C(=O)N4CCC[C@H]4C(=O)N[C@@H](CCCCN)C(=O)O)[C@@H](C)O)NC(=O)[C@H](Cc4c[nH]cn4)NC(=O)[C@H](CSSC[C@H](NC(=O)[C@H](CCC(N)=O)NC(=O)[C@H](CCCNC(=N)N)NC(=O)[C@H](CO)NC(=O)[C@H]([C@@H](C)CC)NC(=O)[C@H](CCCCN)NC1=O)C(=O)N[C@@H](CC(C)C)C(=O)N[C@@H](CCC(=O)O)C(=O)N1CCC[C@H]1C(=O)N3)NC(=O)[C@H](CCCCN)NC(=O)CNC(=O)[C@H](CC(N)=O)NC(=O)[C@H](CCSC)NC2=O)C(C)C` [I3A] (H-GVAINVKCKISRQCLEPCKKAGMRFGKCMNGKCHCTPK-OH; disulfide 8-28, 14-33, 18-35): the IC50 worked out at 0.0883 nM in assay [1] (setting [3]) and 0.0992 nM in assay [2] (setting [4]).
For `CC[C@H](C)[C@@H]1NC(=O)[C@H](CCCCN)NC(=O)[C@@H](NC(=O)[C@H](CCCCN)NC(=O)[C@@H](NC(=O)[C@H](CC(N)=O)NC(=O)[C@@H](NC(=O)[C@@H](NC(=O)[C@@H](NC(=O)[C@@H](N)CCC(=O)O)C(C)C)[C@@H](C)CC)[C@@H](C)CC)C(C)C)CSSC[C@@H]2NC(=O)[C@H](CCCCN)NC(=O)CNC(=O)[C@H](Cc3ccccc3)NC(=O)[C@H](CCCNC(=N)N)NC(=O)[C@H](CCSC)NC(=O)CNC(=O)[C@H](C)NC(=O)[C@H](CCCCN)NC(=O)[C@H](CCCCN)NC(=O)[C@@H]3CSSC[C@@H](C(=O)N[C@H](C(=O)N4CCC[C@H]4C(=O)N[C@@H](CCCCN)C(=O)O)[C@@H](C)O)NC(=O)[C@H](Cc4c[nH]cn4)NC(=O)[C@H](CSSC[C@H](NC(=O)[C@H](CCC(N)=O)NC(=O)[C@H](CCCNC(=N)N)NC(=O)[C@H](CO)NC1=O)C(=O)N[C@@H](CC(C)C)C(=O)N[C@@H](CCC(=O)O)C(=O)N1CCC[C@H]1C(=O)N3)NC(=O)[C@H](CCCCN)NC(=O)CNC(=O)[C@H](CC(N)=O)NC(=O)[C@H](CCSC)NC2=O` [G1E] (H-EVIINVKCKISRQCLEPCKKAGMRFGKCMNGKCHCTPK-OH; disulfide 8-28, 14-33, 18-35), the IC50 in assay [1] (setting [3]) came to 1.22 nM; in assay [2] (setting [4]), 1.25 nM.
